Where two headings read alike, the source gives them in different places.
Columns and labels:
[1] = test system: leukaemia cells overexpressing TdT; design: method as in PMID 22390204; conditions: read-out: cytotoxicity activity IC50; cited from earlier work
human TdT = target: T1, human TdT (Homo sapiens, UniProt P04053); test: Terminal transferase assay, TdT; type: biochemical; conditions: human TdT
T1 construct: purchased Trevigen (Gaithersburg, MD)
Procedure: (§1) Recombinant full-length human DNA polymerase λ and β were generated and purified as described. After purification, the protein was >90% homogeneous, as judged by sodium dodecyl sulphate (SDS)−polyacrylamide gel electrophoresis (PAGE) and Coomassie staining. TdT was from Trevigen (Gaithersburg, MD).
(§2) Terminal Transferase Assay. DNA polymerase λ and TdT terminal transferase activities were assayed in a final volume of 25 μL containing 50 mM Tris-HCl (pH 7.0), 0.25 mg/mL BSA, 1 mM DTT, 0.2 μM ss 30mer (AAC)10 DNA oligonucleotide, 25 μM [3H]dNTPs (10 Ci/mmol) and 0.5 mM MnCl2 or 5 mM MgCl2 used as cofactors. Terminal transferase activity was monitored in the presence of 10% DMSO or in the presence of increasing amounts of inhibitors dissolved in DMSO. All reactions were incubated for 10 min at 37 °C and the DNA precipitated with 10% trichloroacetic acid. Insoluble radioactive material was determined by scintillation counting using Trilux beta-counter (PerkinElmer) as described.
(§3) Dose − response curves were generated by computer fitting of the data to the equation E(%) = Emax/(1 + I/ID50) where E(%) is the fraction of enzyme’s activity measured in the presence of the inhibitor, Emax is the activity in the absence of the inhibitor, I is the inhibitor concentration, and ID50 is the inhibitor concentration at which E(%) = 0.5 Emax. ID50 values were generated using GraphPad Prism 6.

human DNA polymerase β [2] = target: T2, human DNA polymerase β (Homo sapiens, UniProt P06746); test: Polymerase assay, DNA polymerase β; type: biochemical; conditions: for IC50: enzymatic assay, read-out: ID50 pol β; for residual polymerase activities: fix concentration of 100 µM, pol β; for pol β Residual activity (%) Mg2+ / pol β Residual activity (%) Mn2+: after treatment 100 mM
T2 construct: Recombinant full-length human DNA polymerase λ and β were generated and purified as described; made in house
Procedure: as §1
(§4) Polymerase Assay: Activity of DNA polymerase λ and β were assessed using poly(dA)/oligo(dT)10:1 substrate in a final volume of 25 μL containing 50 mM Tris-HCl (pH 7.0), 0.25 mg/mL BSA, 1 mM, DTT, 0.2 μM poly(dA)/oligo(dT)10:1 (3′-OH ends), 50 nM DNA polymerase λ or β, 5 μM [3H]-2′-deoxythymidine 5′-triphosphate (dTTP) (5 Ci/mmol), and 0.5 mM MnCl2 or 5 mM MgCl2 used as cofactors. The polymerase activity was monitored in the presence of 10% DMSO or in the presence of increasing amounts of inhibitors dissolved in DMSO. All reactions were incubated for 15 min at 37 °C and the DNA precipitated with 10% trichloroacetic acid. Insoluble radioactive material was determined by scintillation counting using Trilux beta-counter (PerkinElmer) as described.
as §3

human DNA polymerase λ [3] = target: T3, human DNA polymerase λ (Homo sapiens, UniProt Q9UGP5); test: Polymerase assay, DNA polymerase λ (template-dependent); type: biochemical; conditions: for IC50: enzymatic assay, template-dependent polymerase activity, read-out: ID50 pol λ (Pol); for residual polymerase activities: fix concentration of 100 µM, pol λ; for pol λ (Pol) Residual activity (%) Mg2+ / pol λ (Pol) Residual activity (%) Mn2+: after treatment 100 mM
T3 construct: Recombinant full-length human DNA polymerase λ and β were generated and purified as described; made in house
T3 sequence (Q9UGP5 1-575): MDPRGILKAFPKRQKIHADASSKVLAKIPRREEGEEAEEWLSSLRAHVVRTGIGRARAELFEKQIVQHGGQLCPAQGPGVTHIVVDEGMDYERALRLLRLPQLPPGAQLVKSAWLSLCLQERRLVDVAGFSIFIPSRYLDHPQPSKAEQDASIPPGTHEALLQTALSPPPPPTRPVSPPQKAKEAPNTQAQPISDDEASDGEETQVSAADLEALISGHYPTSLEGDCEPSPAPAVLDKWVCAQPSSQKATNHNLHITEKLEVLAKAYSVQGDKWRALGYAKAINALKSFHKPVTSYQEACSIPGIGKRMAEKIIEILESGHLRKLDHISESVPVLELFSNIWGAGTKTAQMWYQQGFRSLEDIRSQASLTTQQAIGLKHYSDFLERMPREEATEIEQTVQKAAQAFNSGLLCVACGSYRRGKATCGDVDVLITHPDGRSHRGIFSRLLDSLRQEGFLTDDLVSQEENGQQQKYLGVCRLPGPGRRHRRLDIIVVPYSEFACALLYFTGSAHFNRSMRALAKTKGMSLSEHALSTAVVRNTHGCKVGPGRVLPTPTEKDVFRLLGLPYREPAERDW
Procedure: as §1, §4, §3

human DNA polymerase λ [4] = target: T3, human DNA polymerase λ; test: Terminal transferase assay, DNA polymerase λ (TdT-like activity); type: biochemical; conditions: for IC50: enzymatic assay, TdT-like activity of pol λ, read-out: ID50 pol λ (TdT)
Procedure: as §1, §2, §3

human DNA polymerase β [5] = target: T2, human DNA polymerase β; design: method as in PMID 19329428; conditions: enzymatic assay; cited from earlier work
human DNA polymerase λ [6] = target: T3, human DNA polymerase λ; design: method as in PMID 19329428; conditions: enzymatic assay; cited from earlier work
human DNA polymerase λ [7] = target: T3, human DNA polymerase λ; design: method as in PMID 19329428; conditions: enzymatic assay; cited from earlier work; remark: listed apart in the source
[8] = Mg2+ as cofactor, read-out: ID50 (µM) Mg2+
[9] = Mn2+ as cofactor, read-out: ID50 (µM) Mn2+

T1 sequence (P04053 whole entry): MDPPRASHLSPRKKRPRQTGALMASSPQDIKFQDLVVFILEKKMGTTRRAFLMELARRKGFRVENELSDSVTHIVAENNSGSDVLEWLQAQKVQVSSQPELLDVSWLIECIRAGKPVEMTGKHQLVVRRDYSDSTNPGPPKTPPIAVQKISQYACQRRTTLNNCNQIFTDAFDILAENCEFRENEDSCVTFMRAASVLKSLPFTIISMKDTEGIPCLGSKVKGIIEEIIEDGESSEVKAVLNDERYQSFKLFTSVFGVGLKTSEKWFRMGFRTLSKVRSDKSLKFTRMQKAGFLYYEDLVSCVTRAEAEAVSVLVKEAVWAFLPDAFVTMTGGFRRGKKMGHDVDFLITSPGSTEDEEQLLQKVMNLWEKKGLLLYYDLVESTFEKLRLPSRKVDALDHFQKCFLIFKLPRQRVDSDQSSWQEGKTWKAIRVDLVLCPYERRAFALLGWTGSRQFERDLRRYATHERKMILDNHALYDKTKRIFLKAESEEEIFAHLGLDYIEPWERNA

## C#Cc1cn([C@H]2C[C@H](O)[C@@H](COP(=O)(O)OP(=O)(O)OP(=O)(O)O)O2)c2ccc([N+](=O)[O-])cc12 [3-eth-5-NITP, 3-ethynyl-5-nitroindolyl-2′-deoxynucleoside triphosphate]
[1]
  IC50: 3.9 µM

## CCOC(=O)/C(O)=C/C(=O)/C=C/c1cc(C(=O)c2ccccc2)cn1Cc1ccc(OC)cc1 [Compound 5i]
Human TdT; [8]
  IC50: 10.5 ± 0.2 µM
Human TdT; [9]
  IC50: > 50 µM
Human DNA polymerase β [2]
  IC50: 7.94 ± 0.1 µM
  residual polymerase activities: less than 10%
Human DNA polymerase λ [3]
  IC50: 4.07 ± 0.3 µM
  residual polymerase activities: less than 10%
Human DNA polymerase λ [4]
  IC50: > 100 µM

## Ethyl 4-(1-(4-fluorobenzyl)-4-phenyl-1H-pyrrol-3-yl)-2,4-dioxobutanoate [Compound 11b]
Human TdT; [9]
  IC50: >50 µM
Human DNA polymerase β [2]
  pol β Residual activity (%) Mg2+: 60.5%
  pol β Residual activity (%) Mn2+: 88%
Human DNA polymerase λ [3]
  pol λ (Pol) Residual activity (%) Mg2+: 70.0%
  pol λ (Pol) Residual activity (%) Mn2+: 94.0%

## O=C(/C=C(\O)C(=O)O)/C=C/c1cc(C(=O)c2ccccc2)cn1Cc1ccc(Cl)cc1 [Compound 6h]
Human TdT; [8]
  IC50: 5.1 ± 0.12 µM
Human DNA polymerase β [2]
  IC50: 20 ± 0.4 µM
  residual polymerase activities: less than 10%
Human DNA polymerase λ [3]
  IC50: 4.06 ± 0.2 µM
  residual polymerase activities: less than 10%
Human DNA polymerase λ [4]
  IC50: > 100 µM

## O=C(/C=C(\O)C(=O)O)/C=C/c1cc(C(=O)c2ccc(F)cc2)c[nH]1 [Compound 4]
Human DNA polymerase β [5]
  ID50 pol β: > 40 µM
Human TdT; [9]
  IC50: 0.58 ± 0.03 µM
Human DNA polymerase λ [6]
  ID50 pol λ (TdT): 40 ± 1 µM
Human DNA polymerase λ [7]
  ID50 pol λ (Pol): > 40 µM

## CCOC(=O)/C(O)=C/C(=O)/C=C/c1cc(C(=O)c2ccccc2)cn1Cc1ccc(Cl)cc1 [Compound 5h]
Human TdT; [8]
  IC50: 17.51 ± 0.12 µM
Human TdT; [9]
  IC50: > 50 µM
Human DNA polymerase β [2]
  IC50: 12.4 ± 0.3 µM
  residual polymerase activities: less than 10%
Human DNA polymerase λ [3]
  IC50: 4.08 ± 0.4 µM
  residual polymerase activities: less than 10%
Human DNA polymerase λ [4]
  IC50: > 100 µM

## O=C(/C=C(\O)C(=O)O)/C=C/c1cc(C(=O)c2cccc(F)c2)c[nH]1 [Compound 3]
Human DNA polymerase β [5]
  ID50 pol β: > 40 µM
Human TdT; [9]
  IC50: 0.78 ± 0.04 µM
Human DNA polymerase λ [6]
  ID50 pol λ (TdT): 35 ± 1 µM
Human DNA polymerase λ [7]
  ID50 pol λ (Pol): > 40 µM

## 4-(1-(4-fluorobenzyl)-4-phenyl-1H-pyrrol-3-yl)-2,4-dioxobutanoic acid [Compound 12b]
Human TdT; Mn2+ as cofactor
  ID50 (µM) Mn2+: 10.10 ± 4.1 µM
Human TdT; [9]
  IC50: 10.10 µM
Human DNA polymerase β [2]
  pol β Residual activity (%) Mg2+: 51.7%
  pol β Residual activity (%) Mn2+: 82.5%
Human DNA polymerase λ [3]
  pol λ (Pol) Residual activity (%) Mg2+: 74.0%
  pol λ (Pol) Residual activity (%) Mn2+: 79.0%
Human DNA polymerase λ [4]; after treatment 100 mM, Mn2+
  pol λ (TdT) Residual activity (%) Mn2+: 100%

## O=C(/C=C(\O)C(=O)O)/C=C/c1cc(C(=O)c2ccccc2)cn1Cc1ccc(F)cc1 [Compound 2]
Human DNA polymerase β [5]
  ID50 pol β: > 40 µM
Human TdT; [9]
  IC50: 9.5 ± 0.1 µM
Human DNA polymerase λ [6]
  ID50 pol λ (TdT): > 40 µM
Human DNA polymerase λ [7]
  ID50 pol λ (Pol): > 40 µM

## O=C(/C=C(\O)C(=O)O)/C=C/c1cc(C(=O)c2ccccc2)cn1Cc1ccccc1 [Compound 1]
Human DNA polymerase β [5]
  ID50 pol β: > 40 µM
Human TdT; [9]
  IC50: 16 ± 0.5 µM
Human DNA polymerase λ [6]
  ID50 pol λ (TdT): 20 ± 1 µM
Human DNA polymerase λ [7]
  ID50 pol λ (Pol): > 40 µM

## COc1ccc(Cn2cc(C(=O)c3ccccc3)cc2/C=C/C(=O)/C=C(\O)C(=O)O)cc1 [Compound 6i]
Human TdT; [8]
  IC50: 2.7 ± 0.32 µM
Human TdT; [9]
  IC50: > 50 µM
Human DNA polymerase β [2]
  IC50: 14.7 ± 0.8 µM
  residual polymerase activities: less than 10%
Human DNA polymerase λ [3]
  IC50: 4.06 ± 0.1 µM
  residual polymerase activities: less than 10%
Human DNA polymerase λ [4]
  IC50: > 100 µM
